According to patent publication US20230015949A1, “NEISSERIA TREATMENT USING CANNABINOIDS” (priority 2019, published 2023):
Converted amounts (≈) assume the structure as drawn. Read-outs that look alike come from different tables or passages of the source.

What was measured:
Neisseria gonorrhoeae = assay: Broth microdilution MIC assay, 30 isolates (Example 2); format: cell-based
Protocol: In this study, the in vitro spectrum of activity of CBD was determined against 30 isolates comprised of reference strains from the WHO, isolates from the CDC antibiotic resistance bank, and clinical isolates from the Micromyx (MMX) repository, with different resistance phenotypes. Assays were conducted following guidelines recommended by the Clinical and Laboratory Standards Institute (CLSI; 1, 2) with the exception that broth microdilution was used instead of agar dilution.
Stock solutions of all compounds were prepared on the day of testing using solvents recommended by CLSI. Stock solutions of all compounds were made at 101× the final testing concentration. CBD was supplied by Cerilliant (Round Rock, Tex.) as a 1 mg/mL methanolic solution which was stored at −20° C. after receipt. Prior to testing, using a 5 mL aliquot of the CBD methanolic solution, the methanol was dried off and the residual CBD was resuspended in 774 μL DMSO resulting in a 6.464 mg/mL solution.
The test organisms evaluated in this study consisted of Neisseria gonorrhoeae isolates from the Micromyx repository and reference isolates from the American Type Culture Collection (ATCC; Manassas, Va.), Centers for Disease Control and Prevention (CDC; Atlanta, Ga.) or the National Collection of Type Cultures (NCTC; Public Health England, Salisbury, UK). Upon initial receipt at Micromyx, the organisms were sub-cultured onto an appropriate agar medium.
(§1) Following incubation, colonies were harvested from these plates and cell suspensions prepared and frozen at −80° C. with a cryoprotectant. Prior to testing, N. gonorrhoeae isolates were streaked onto Chocolate Agar [Becton Dickinson, (BD), Sparks, Md.; Lot No. 922807]; Staphylococcus aureus ATCC 29213 tested for quality control (QC) purposes was streaked onto Trypticase Soy Agar with 5% Sheep Blood (TSA II; BD; Lot No. 9219399).
For N. gonorrhoeae, a modified medium described by the ATCC as capable of supporting the growth of N. gonorrhoeae (Neisseria peptone medium) was used for the broth microdilution MIC assay. This medium contained 15 g Oxoid Special Peptone (Lot No. 1280296; Oxoid, Hampshire, UK), 1 g corn starch (Lot No. AD-13344-14; Ward's Science; Rochester, N.Y.), 5 g NaCl (Lot No. 57897; VWR, Radnor, Pa.), 4 g K2HPO4 (Lot No. SLBT7061; Sigma), and 1 g KH2PO4 (Lot No. SLBC1921V; Sigma). After autoclaving, the medium was centrifuged at 5,000×g for 10 min, the supernatant was passed through a 0.45 μm filter, and IsoVitaleX supplement (Lot No. 8323954; BD) was added at 1% (v/v).
(§2) MIC values were determined using a broth microdilution procedure described by CLSI (1, 2). Automated liquid handlers (Multidrop 384, Labsystems, Helsinki, Finland; Biomek 2000 and Biomek FX, Beckman Coulter, Fullerton Calif.) were used to conduct serial dilutions and liquid transfers.
(§3) To prepare the drug mother plates, which would provide the serial drug dilutions for the replicate daughter plates, the wells of columns 2 through 12 of standard 96-well microdilution plates (Costar 3795) were filled with 150 μl of the designated diluent for each row of drug. The test articles and comparator compounds (300 μl at 100× the highest concentration to be tested) were dispensed into the appropriate wells in column 1. The Biomek 2000 was then used to make 2-fold serial dilutions in the mother plates from column 1 through column 11. The wells of column 12 contained no drug and served as the organism growth control wells for the assay.
(§4) The daughter plates were loaded with 190 μL per well of the appropriate test medium for the tested organism using the Multidrop 384. The daughter plates were completed on the Biomek FX instrument which transferred 2 μL of drug solution from each well of a mother plate to the corresponding well of each daughter plate in a single step. Daughter plates for the testing of anaerobes were allowed to pre-reduce in the Bactron II anaerobe chamber for 2 hr prior to inoculation.

[1] = test system: Staphylococcus aureus ATCC 29213; assay: Broth microdilution MIC assay, quality control strain (Example 2); format: cell-based; conditions: ATCC29213, S. aureus ATCC 29213 (QC), CAMHB
Protocol: as §1
Cation-adjusted Mueller Hinton broth (CAMHB; BD; Lot No. 9019592) was used for MIC testing of S. aureus ATCC 29213 for QC purposes.
as §2, §3, §4
A standardized inoculum of each test organism was prepared per CLSI methods (1, 2). The inoculum for each organism was dispensed into sterile reservoirs divided by length (Beckman Coulter), and the Biomek 2000 was used to inoculate the plates. Daughter plates were placed on the Biomek 2000 work surface in reverse orientation so that inoculation took place from low to high drug concentration. Anaerobic organisms were inoculated by hand in the Bactron II anaerobic chamber. Bacterial plates were then inoculated with 10 μL of the inoculum resulting in a final cell density of approximately 5×10^5 CFU/mL.
Plates were stacked 3 to 4 high, covered with a lid on the top plate and placed in plastic bags. […] The MIC was read and recorded as the lowest concentration of drug that inhibited visible growth of the organism.

[2] = 30 isolates of N. gonorrhoeae, broth microdilution, MIC distribution
[3] = 30 isolates, broth dilution assay, MIC distribution (Table 6)

CC[C@H]1OC(=O)[C@H](C)[C@@H](O[C@H]2C[C@@](C)(OC)[C@@H](O)[C@H](C)O2)[C@H](C)[C@@H](O[C@@H]2O[C@H](C)C[C@H](N(C)C)[C@H]2O)[C@](C)(O)C[C@@H](C)CN(C)[C@H](C)[C@@H](O)[C@]1(C)O [AZI, azithromycin]
MIC (Neisseria gonorrhoeae): 0.25 µg/mL (≈ 0.334 µM) | MIC90 (Neisseria gonorrhoeae; 30 isolates of N. gonorrhoeae, broth microdilution): >8 µg/mL | Number of isolates at MIC value 0.015 μg/mL (Neisseria gonorrhoeae; [2]): 0 | Number of isolates at MIC value 0.03 μg/mL (Neisseria gonorrhoeae; [2]): 0 | Number of isolates at MIC value 0.06 μg/mL (Neisseria gonorrhoeae; [2]): 2 | Number of isolates at MIC value 0.5 μg/mL (Neisseria gonorrhoeae; [2]): 2 | Number of isolates at MIC value 1 μg/mL (Neisseria gonorrhoeae; [2]): 1 | Number of isolates at MIC value 2 μg/mL (Neisseria gonorrhoeae; [2]): 2 | Number of isolates at MIC value 4 μg/mL (Neisseria gonorrhoeae; [2]): 1 | Number of isolates at MIC value 8 μg/mL (Neisseria gonorrhoeae; [2]): 1 | Number of isolates at MIC value >8 μg/mL (Neisseria gonorrhoeae; [2]): 4 | Number of isolates at MIC 0.08 μg mL^−1 (Neisseria gonorrhoeae; [3]): 0 | Number of isolates at MIC ≤0.004 μg mL^−1 (Neisseria gonorrhoeae; [3]): 0 | MIC (Neisseria gonorrhoeae; Neisseria gonorrhoeae, ATCC49226, N. gonorrhoeae ATCC 49226 (QC), broth microdilution, read-out: MIC): 0.25 µg/mL (≈ 0.334 µM) | MIC (Neisseria gonorrhoeae; Neisseria gonorrhoeae, N. gonorrhoeae CDC 0165 (CIP-R, AZI MIC 1), broth microdilution, read-out: MIC): 1 µg/mL (≈ 1.34 µM) | MIC (Neisseria gonorrhoeae; Neisseria gonorrhoeae, N. gonorrhoeae CDC 0166 (CIP-R, AZI MIC 1), broth microdilution, read-out: MIC): 0.5 µg/mL (≈ 0.668 µM) | MIC (Neisseria gonorrhoeae; Neisseria gonorrhoeae, N. gonorrhoeae CDC 0167 (CIP-S, AZI MIC 8), broth microdilution, read-out: MIC): > 8 µg/mL | MIC (Neisseria gonorrhoeae; Neisseria gonorrhoeae, N. gonorrhoeae CDC 0172 (CIP-R, AZI MIC 0.5), broth microdilution, read-out: MIC): 0.25 µg/mL (≈ 0.334 µM) | MIC (Neisseria gonorrhoeae; Neisseria gonorrhoeae, N. gonorrhoeae CDC 0175 (CIP-S, AZI MIC 16), broth microdilution, read-out: MIC): > 8 µg/mL | MIC (Neisseria gonorrhoeae; Neisseria gonorrhoeae, N. gonorrhoeae CDC 0177 (CIP-S, AZI MIC 2), broth microdilution, read-out: MIC): 2 µg/mL (≈ 2.67 µM) | MIC (Neisseria gonorrhoeae; Neisseria gonorrhoeae, N. gonorrhoeae CDC 0181 (CIP-S, AZI MIC 256), broth microdilution, read-out: MIC): > 8 µg/mL | MIC (Neisseria gonorrhoeae; Neisseria gonorrhoeae, N. gonorrhoeae CDC 0194 (CRO-NS, CIP-S, AZI MIC 0.5), broth microdilution, read-out: MIC): 0.25 µg/mL (≈ 0.334 µM) | MIC (Neisseria gonorrhoeae; Neisseria gonorrhoeae, N. gonorrhoeae MMX 6921 (CIP-R), broth microdilution, read-out: MIC): 8 µg/mL (≈ 10.7 µM) | MIC (Neisseria gonorrhoeae; Neisseria gonorrhoeae, N. gonorrhoeae MMX 6938 (CIP-S), broth microdilution, read-out: MIC): 0.25 µg/mL (≈ 0.334 µM) | MIC (Neisseria gonorrhoeae; Neisseria gonorrhoeae, N. gonorrhoeae MMX 10409 (CIP-R), broth microdilution, read-out: MIC): 0.25 µg/mL (≈ 0.334 µM) | MIC (Neisseria gonorrhoeae; Neisseria gonorrhoeae, N. gonorrhoeae MMX 10410 (CIP-S), broth microdilution, read-out: MIC): 0.12 µg/mL (≈ 0.16 µM) | MIC (Neisseria gonorrhoeae; Neisseria gonorrhoeae, N. gonorrhoeae MMX 10447 (CIP-S), broth microdilution, read-out: MIC): 0.06 µg/mL (≈ 0.0801 µM) | MIC (Neisseria gonorrhoeae; Neisseria gonorrhoeae, N. gonorrhoeae MMX 10450 (CIP-S), broth microdilution, read-out: MIC): 0.12 µg/mL (≈ 0.16 µM) | MIC (Neisseria gonorrhoeae; Neisseria gonorrhoeae, N. gonorrhoeae MMX 10452 (CIP-R), broth microdilution, read-out: MIC): 0.12 µg/mL (≈ 0.16 µM) | MIC (Neisseria gonorrhoeae; Neisseria gonorrhoeae, N. gonorrhoeae MMX 10454 (CIP-R), broth microdilution, read-out: MIC): 0.12 µg/mL (≈ 0.16 µM) | MIC (Neisseria gonorrhoeae; Neisseria gonorrhoeae, NCTC13477, N. gonorrhoeae NCTC 13477 (WHO F; CIP-S, AZI MIC […]), broth microdilution, read-out: MIC): 0.06 µg/mL (≈ 0.0801 µM) | MIC (Neisseria gonorrhoeae; Neisseria gonorrhoeae, NCTC13478, N. gonorrhoeae NCTC 13478 (WHO G; CIP-I, AZI MIC […]), broth microdilution, read-out: MIC): 0.25 µg/mL (≈ 0.334 µM) | MIC (Neisseria gonorrhoeae; Neisseria gonorrhoeae, NCTC13479, N. gonorrhoeae NCTC 13479 (WHO K; CIP-R, AZI MIC […]), broth microdilution, read-out: MIC): 0.25 µg/mL (≈ 0.334 µM) | MIC (Neisseria gonorrhoeae; Neisseria gonorrhoeae, NCTC13480, N. gonorrhoeae NCTC 13480 (WHO L; CIP-R, AZI MIC 0.5), broth microdilution, read-out: MIC): 0.25 µg/mL (≈ 0.334 µM) | MIC (Neisseria gonorrhoeae; Neisseria gonorrhoeae, NCTC13481, N. gonorrhoeae NCTC 13481 (WHO M; CIP-R, AZI MIC […]), broth microdilution, read-out: MIC): 0.12 µg/mL (≈ 0.16 µM) | MIC (Neisseria gonorrhoeae; Neisseria gonorrhoeae, NCTC13482, N. gonorrhoeae NCTC 13482 (WHO N; CIP-R, AZI MIC […]), broth microdilution, read-out: MIC): 0.12 µg/mL (≈ 0.16 µM) | MIC (Neisseria gonorrhoeae; Neisseria gonorrhoeae, NCTC13483, N. gonorrhoeae NCTC 13483 (WHO O; CIP-S, AZI MIC […]), broth microdilution, read-out: MIC): 0.25 µg/mL (≈ 0.334 µM) | MIC (Neisseria gonorrhoeae; Neisseria gonorrhoeae, NCTC13484, N. gonorrhoeae NCTC 13484 (WHO P; CIP-S, AZI MIC 4), broth microdilution, read-out: MIC): 4 µg/mL (≈ 5.34 µM) | MIC (Neisseria gonorrhoeae; Neisseria gonorrhoeae, NCTC13817, N. gonorrhoeae NCTC 13817 (WHO U; CIP-S, AZI MIC 4), broth microdilution, read-out: MIC): 2 µg/mL (≈ 2.67 µM) | MIC (Neisseria gonorrhoeae; Neisseria gonorrhoeae, NCTC13818, N. gonorrhoeae NCTC 13818 (WHO V; CIP-R, AZI MIC >256), broth microdilution, read-out: MIC): > 8 µg/mL | MIC (Neisseria gonorrhoeae; Neisseria gonorrhoeae, NCTC13819, N. gonorrhoeae NCTC 13819 (WHO W; CIP-R, AZI MIC 0.5), broth microdilution, read-out: MIC): 0.25 µg/mL (≈ 0.334 µM) | MIC (Neisseria gonorrhoeae; Neisseria gonorrhoeae, NCTC13820, N. gonorrhoeae NCTC 13820 (WHO X; CRO-NS, CIP-R, AZI MIC 0.5), broth microdilution, read-out: MIC): 0.25 µg/mL (≈ 0.334 µM) | MIC (Neisseria gonorrhoeae; Neisseria gonorrhoeae, NCTC13821, N. gonorrhoeae NCTC 13821 (WHO Y; CIP-R, AZI MIC 1), broth microdilution, read-out: MIC): 0.5 µg/mL (≈ 0.668 µM) | MIC50 (Neisseria gonorrhoeae; Neisseria gonorrhoeae, 30 isolates of N. gonorrhoeae, broth microdilution, read-out: MIC50): 0.25 µg/mL (≈ 0.334 µM) | MIC90 (Neisseria gonorrhoeae; Neisseria gonorrhoeae, 30 isolates of N. gonorrhoeae, broth microdilution, read-out: MIC90): > 8 µg/mL | MIC (Neisseria gonorrhoeae; Neisseria gonorrhoeae, 30 isolates of N. gonorrhoeae, broth microdilution, read-out: MIC Mode): 0.25 µg/mL (≈ 0.334 µM) | MIC [1]: 0.5 µg/mL (≈ 0.668 µM)
